Reference: a melting point compilation (Tetko et al.; mined from patent text by program, amines drawn as free bases though some values may be those of a salt)

Row | SMILES | melting point [°C]
1 | CCOCCc1c(-c2ccccc2)nc(Cl)n2ncnc12 | 134 to 135
2 | CC(=O)C[C@H]1CC[C@H](c2ccc(Cl)cc2)CC1 | 58 to 60
3 | COc1cc(COc2nn(-c3ccccc3)cc2CCc2cscn2)ccc1OCc1nc(-c2ccco2)oc1C | 127 to 128
4 | CC(C)CN1CCCCC1C(=O)Nc1cc(C(F)(F)F)ccc1-c1cc(Oc2cccc3[nH]c(=O)c(N)nc23)ncn1 (stereo not given) | > 250
5 | CCCC(=O)c1cnc2ccsc2c1Nc1ccccc1C | 114 to 116
6 | CC(=O)Oc1ccccc1C1SC[C@@H](C(=O)O)N1C(=O)CCSC(C)=O (stereo not given in full) | 144 to 145
7 | CCOc1ccccc1-c1cc(NC(=O)C2CCN(C(C)C)CC2)ncn1 | 173 to 175
8 | C1=C(c2ccccc2)SCCS1 | 54 to 55
9 | CC(C)(C)ON=C1CC(=NOC(C)(C)C)c2ccccc2-c2ccccc21 | 181 to 183
10 | O=C(Oc1ccc(Oc2ccccc2)cc1)N1CCC(CO)CC1 | 71 to 74
11 | COc1cc(C(F)(F)F)nn1-c1ccc(NC(=O)c2cccnc2F)cc1 | 153 to 154
12 | COCc1nnc2ccc(-c3cccc(C(F)(F)F)c3)nn12 | 149 to 150
13 | CC(C)c1cccc(C(C)C)c1NC(=O)N(Cc1ccc(N(C)C)cc1)c1ccc(F)cc1 | 124 to 125
14 | COC(=O)c1ccc(C(=O)c2cc3c(cc2C)OC2(C)C4CCC(C)(C4)C32C)cc1 (stereo not given) | 140 to 142
15 | CC(C)(C)c1ccc(COc2cc3c(cc2C(=O)c2ccc(C(=O)O)cc2)C(C)(C)CCC3(C)C)cc1 | 218 to 219
16 | COc1cccc(C(CC(=O)O)SC)c1 (stereo not given) | 61 to 63
17 | O=[N+]([O-])c1c(NCC(O)CO)cccc1NCC(O)CO (stereo not given) | 138
18 | CSc1ccc(C(=N)Nc2ccc(C)c(C)c2)cc1 | 111 to 113
19 | CCC(C)(C)Nc1c(NCc2cc(C)cc(C)c2)c(=O)c1=O | 222 to 224
20 | CCOC(=O)c1c([N+](=O)[O-])c(-c2ccc(Cl)cc2)n(OC)c1C(F)(F)F | 90 to 92
21 | Nc1c(Br)cc(OC(F)F)cc1[N+](=O)[O-] | 60.5 to 61.5
22 | O=C(Nc1cccc(C(F)(F)F)c1)c1cccnc1NCCc1ccncc1 | 128 to 138
23 | O=C1c2ccccc2C(=O)N1Cc1ccc(/C=C/C(c2cc(Cl)c(Cl)c(Cl)c2)C(F)(F)F)c2ccccc12 (stereo not given) | 158 to 160
24 | O=C1N[C@H](Cc2cccc(OC(F)(F)C(F)F)c2)[C@H](c2ccnc(F)c2)O1 (racemic) | 118 to 119
25 | O=C(Nc1ccccc1)Nc1ccc(F)c([N+](=O)[O-])c1 | 200 to 202

Row | SMILES | melting point [°C]
26 | O=C1CCC(N2C(=O)c3cccc(OCc4ccccc4)c3C2=O)C(=O)N1 (stereo not given) | 238 to 240
27 | N#Cc1ccc(-c2cn(-c3ccc(C#N)cc3)c(SCc3cccnc3)n2)cc1 | 218 to 225
28 | O=C(Nc1ccc(S(=O)(=O)F)cc1)c1cc(Cl)ccc1[N+](=O)[O-] | 182 to 184
29 | O=C1CCc2ccc(OCCCCN3CCCN(c4cccc(Cl)c4Cl)CC3)nc2N1 | 110 to 111
30 | Cc1nc(C)c(Cl)c(NCc2nccc(OCCCCN3CCN(Cc4ccncc4)CC3)c2C)n1 | 157 to 158
31 | Cc1c(Cl)cccc1N=c1scc(-c2ccc(Cl)c(S(=O)(=O)N(C)C)c2)n1C | 144 to 146
32 | COCC1(F)CCN(c2ccc(N3C[C@H](CNC(C)=O)OC3=O)cc2F)CC1 | 169 to 171
33 | O=C1NCCc2ccccc2N1OCCCCN1CCN(c2cccc(C3CC3)n2)CC1 | 155 to 156
34 | Nc1ccc(Oc2ccc(C3CCCCC3)cc2)c(N)c1 | 101
35 | NC(=O)c1c(Cl)c(-c2ccccc2)n2c1CN(C(=O)c1cccs1)CC2 | 236 to 238
36 | Cc1nc2c(cc1C(=O)O)CCCC2 | 196 to 197
37 | CC1CCN(C(=O)C(Cc2cc3c(N)nccc3s2)NS(=O)(=O)c2ccc(COC3CCOCC3)cc2)CC1 (stereo not given) | 124 to 128
38 | CCc1ccc(NC(=O)Nc2ccc(Oc3ccnc(OC)c3)cc2)cc1 | 196
39 | O=C(OCCN1CCOC1=O)c1ccccc1Nc1ccnc2cc(Cl)ccc12 | 122 to 124
40 | CCN(C(=S)Oc1ccc(C(C)C)cc1)c1cccc(OC)n1 | 53 to 54
41 | CCn1c(N(C)C)nc2cc(C(F)(F)F)c(Cl)c([N+](=O)[O-])c21 | 121 to 122
42 | N#CC1CN1C(=O)c1ccc2c(c1)OCO2 (stereo not given) | 95 to 97
43 | CCC(=O)C(CC)=NNc1ccccc1[N+](=O)[O-] | 96 to 97
44 | COc1cc(Cc2cnc(N)nc2N)cc(OC)c1-n1cccc1 | 220
45 | C/C(=C(\C#N)C(N)=S)N1CCCN(c2ccc(F)c(Cl)c2)CC1 | 148 to 150
46 | CCNC(=O)Nc1cnc2ccc(-c3ccc(N)c(OC)c3)nc2n1 | > 310
47 | CCN(CC)C(=O)Cc1cc(-c2ccccc2)nc2ccccc12 | 86
48 | Cc1c(C)c2c(c(C)c1NC(=O)CC(C)(C)C)C(c1ccc(C(C)C)cc1)CO2 (stereo not given) | 171 to 173
49 | COC(=O)CC(C)N=c1sc2ccccc2s1 (stereo not given) | 78 to 80
50 | CNCCCCn1c(-c2ccc(Br)cc2)csc1=Nc1ccccc1 | 56 to 57

Row | SMILES | melting point [°C]
51 | CC(C#Cc1cccc(Oc2cccs2)c1)N(O)C(N)=O (stereo not given) | 110 to 112
52 | Cc1cc(Nc2ccnc(Nc3ccc(S(=O)(=O)N(C)C4CCN(Cc5cn[nH]c5)CC4)cc3)n2)ccc1F | 224
53 | Cn1cc(-c2ccc(Cl)c(C(F)(F)F)c2)c(=O)c(-c2cccs2)c1 | 166 to 168
54 | CSC1=NC=C(I)C(c2nnn(C)n2)(C(F)(F)F)N1 (stereo not given) | 113 to 118
55 | CCCCCCCCCCCC1=NCCO1 | 71 to 74
56 | O=C1c2ccccc2C(=O)c2c1oc1cc(O)ccc21 | > 310
57 | Cn1c2c(ccc1=O)C(NCCc1ccc(Cl)cc1)CCC2 (stereo not given) | 110 to 112
58 | CCOC(=O)Cc1sc(Sc2ccc(OC)nn2)nc1C | 47 to 49
59 | COc1ccc2c(c1)CCN(C(=O)Cc1ccc([N+](=O)[O-])cc1)C2C (stereo not given) | 112 to 114
60 | CCOc1cc(C)ccc1C1CCN(CCCCNC(=O)c2ccc3c(c2)cc(-c2ccc(Cl)cc2)n3C)CC1 | 174 to 175
61 | Nc1ccc2c(c1)CC(NS(=O)(=O)c1ccccc1)C2 (stereo not given) | 105 to 107
62 | COc1ccccc1-n1c(=O)[nH]c2c(C(N)=O)nc(-c3ccncc3)nc21 | 318 to 320
63 | O=c1cc(-c2ccc(F)cc2)c2c([nH]1)C1CCC(C2)C1 (stereo not given) | > 300
64 | CN(Cc1ccccc1)C(=O)c1c(-c2ccncc2)c(-c2ccc(F)cc2)nn1C | 149 to 150
65 | CCC(CC)Nc1c([N+](=O)[O-])cc(CC(=O)O)c(C(C)C)c1[N+](=O)[O-] | 116 to 118
66 | CC(=O)Oc1ccc(-c2cnc(NC(=O)Cc3ccccc3)c(Cc3ccccc3)n2)cc1 | 228 to 231
67 | Cc1ccccc1COC(C)(CO)CO | 90 to 91
68 | COC(=O)c1ccc(OCCCCCCCc2cc(C)no2)cc1 | 60
69 | CCn1c(=O)c2c(nc(/C=C/c3cc(OC)c(OC(=O)c4ccccc4)c(OC)c3)n2C)n(CC)c1=O | 196
70 | CCOC(=O)c1cn(C2CC2)c2c(OC(F)F)c(F)c(F)c(N)c2c1=O | 295 to 296
71 | N#Cc1c(-c2ccc(Cl)c(Cl)c2)[nH]c(C(F)(F)F)c1Cl | 239 to 241
72 | O=C(O)c1ccccc1-c1ccc(CO)cc1 | 140 to 142
73 | Oc1ccc(OCCN2CCCCC2)cc1 | 148 to 150
74 | N=C(N)c1ccc2[nH]cc(CCN3C(=O)c4ccccc4C3=O)c2c1 | 206 to 209
75 | CC(=O)OC1CSC(Oc2ccc(-c3ccsc3)nc2)C(OC(C)=O)C1OC(C)=O (stereo not given) | 158

Row | SMILES | melting point [°C]
76 | CS(=O)(=O)c1cc(OCc2ccccc2)c(C(=O)O)s1 | 188 to 189
77 | CC=NOCc1nc2c(N)nc3ccccc3c2n1CC(C)C | 155 to 156
78 | CCN(CC)CCOC(=O)CCc1cc(S(C)(=O)=O)cc(-c2nc(=O)c3ccc(Cl)cc3s2)n1 | 150 to 152
79 | CC(C)(C)OC(=O)Nc1ncc(C=O)s1 | 173 to 175
80 | Cc1nn(C)c(C)c1Nc1ccc([N+](=O)[O-])cc1[N+](=O)[O-] | 153
81 | CC(C)C(=O)CCC(C)C1CCC2(C#N)C3=CCC4CC(OC(=O)c5ccccc5)CCC4(C)C3CCC12C (stereo not given) | 168 to 169
82 | CCOC(=O)c1sc(C)nc1O | 104
83 | CC(C)(CO)Nc1nc(SCc2cccc(F)c2F)nc2nc(N)sc12 | 231 to 234
84 | CC(C)Oc1ccc(F)cc1OCCN1C(=O)c2ccccc2C1=O | 68
85 | O=C1C(C2=NCCS2)c2ccccc2N1C1=NCCS1 (stereo not given) | 204 to 205
86 | CCCCCCCCCCCCC1CC(=O)CCC1=O (stereo not given) | 73
87 | OCCCCCc1ccc(OCc2coc(/C=C/c3ccccc3)n2)cc1 | 93 to 94
88 | Nc1nc(-c2cc(Cl)ccc2Cl)nc(N2CCC[C@H]2C(=O)O)n1 | 144 to 147
89 | C(=Cc1ccc(-c2noc3ccccc23)cc1)c1ccc(-c2nc(-c3ccccc3)no2)cc1 | 216 to 217
90 | CC(C)NCC(O)COc1cccc2c1C(=Cc1ccccc1)C(=O)N2 (stereo not given) | 163 to 165
91 | N#CC(Cl)=C(Cl)S(=O)(=O)c1ccccc1 | 72
92 | O=S(CCO)CCC(c1cc(F)ccc1F)S(=O)(=O)c1ccc(Cl)cc1 (stereo not given) | 124 to 132
93 | O=c1c2c(nc3ccc(Br)cn13)C(=Cc1ccc(Cl)cc1Cl)CC2 | 164 to 166
94 | COc1ccc(-c2cnn3c(N)c(-c4ccc(F)c(F)c4)c(C)nc23)cc1OC | 230 to 235
95 | Cc1cccc(-c2cn(C)cc(-c3ccccc3)c2=O)c1 | 79.5
96 | CCCCCc1c(-c2ccc3c(Br)c(O)ccc3c2)oc2ccccc12 | 75 to 77
97 | CC[N+](CC)(CC)C1CC(=O)N1C(C(=O)OCc1ccc([N+](=O)[O-])cc1)=C([O-])CCOC(=O)c1ccccc1 (stereo not given) | 133 to 134
98 | Oc1ccc(C2COc3cc(O)cc(O)c3C2)cc1 (stereo not given) | 206 to 208
99 | COc1c(OCc2ccccc2)ccc(C(=O)O)c1N | 167 to 168
100 | COc1oc2cccc(-c3ccc(O)cc3)c2c1C(C)=O | 222
